Assay results: patent publication US20230278958A1 (Merck Patent GmbH, priority 2020, published 2023)

How the values were obtained:
YAP-TEAD interaction = experiment: SK-HEP-1 reporter assay (8x TEAD responsive elements driving NanoLuc luciferase); assay type: cell-based; details: Homo sapiens, SK-HEP1; SK-HEP-1 TEAD-NanoLuc reporter cells, 24 hour incubation, luciferase readout
Protocol: To identify inhibitors of YAP-TEAD interaction, 8× TEAD responsive elements driving the NanoLuc® luciferase gene were stably integrated into SK-HEP-1 cells (ECACC #: 91091816).
For the assay, cells were treated in duplicates with the test compounds in a 10-point dose, with the top concentration starting at 30 μM (final concentration in assay). After a 24 hour incubation at 37° C., 95% rH, and 5% CO2, a luciferase substrate/lysis reagent mix (NanoGlo™, Promega) was added to the cells, allowing the quantification of cellular luciferase activity.
Cell Media: The cells were cultured in the following media: MEM, +10% FBS, +1× GlutaMAX, +1 mM Sodium-Pyruvate, +100 μM Non-essential amino acids, +0.1 mg/ml Hygromycin. The media used for the assay was: MEM (w/o Phenol Red), +10% FBS, +1× GlutaMAX, +1 mM Sodium-Pyruvate, +100 μM Non-essential amino acids, +0.5% Pen/Strep
(§1) Reagents: The reagents used are listed below:
(§2) Cell culture: The cells were examined using an inverted microscope to check for health and cell density. To dissociate adherent cells, the monolayer of cells was washed once with pre-warmed PBS. After removing the PBS, 3 ml pre-warmed Accutase® was added to a F75 flask, dispersed evenly and the flask was allowed to sit in incubator for ˜4-5 minutes.
(§3) When a single cell suspension was obtained, 7 ml of prewarmed growth media was added and resuspended with the cells. The cell suspension was transferred to a sterile 15 ml conical centrifuge tube, and spun for 5 min at 300×g, RT. The supernatant was discarded and the pellet was resuspended in 10 ml of pre-warmed growth media.
(§4) The total cell count was determined, and 20 μl of the desired cell number was added to each well of a 384 well plate using a Multidrop Combi. The plates were then incubated for 24 hours at 37° C., 95% rH, and 5% CO2.
(§5) Compound treatment: 24 hours after seeding, the cells were treated with compounds.
(§6) A 1:333 dilution of compounds, diluted in DMSO, was made to get a final concentration of 0.3% DMSO per well. To transfer the compounds to the assay plate, 120 nl was shot from Labcyte low dead volume plates to the cell plates containing 20 μl media/well with the ECHO 555 liquid handling system.
(§7) After treatment, the cells were fed with 20 μl fresh pre-warmed assay media using a Multidrop combi.
The assay plates were then incubated for another 24 h at 37° C., 95% rH, and 5% CO2.
Luciferase readout: 24 h after treatment, the plates were taken out of the incubator and were allowed to equilibrate to RT. 30 μl of NanoGlo® reagent was added to the plates in the dark. Plates were shaken for 20 min on a Teleshake (˜1500 rpm) in the dark. The luminescence was then measured using an EnVision microplate reader. The IC50 values were generated using Genedata Screener®.
Experimental data in SK-HEP-1 reporter assay of the compounds shown in Table 1 are shown in Table 2 below and classified in the following groups: […]

NCI-H226 cells = experiment: Viability assay in NCI-H226 (Yap-dependent) cells, CyQUANT; assay type: cell-based; details: Homo sapiens, 96 hour incubation
Protocol: (§8) The ability of YAP-TEAD inhibitors to inhibit tumor cell growth was evaluated using two different cell lines: NCI-H226, which is a YAP dependent cell line, and SW620 cells, where YAP and TAZ were knocked out using CRISPR to generate a YAP independent cell line.
(§9) For the assay, cells were treated in duplicates with the test compounds in a 10-point dose, 1:3 dilution steps, with the top concentration starting at 30 μM (final concentration in assay). After a 96 hour incubation at 37° C., 95% rH, and 5% CO2, a cell-permeant DNA-binding dye that stains only healthy cells (CyQUANT®, Promega) was added to the cells, allowing the quantification of cell viability.
(§10) Cell Media: The NCI-H226 cells were cultured in the following media: RPMI 1640, +10% FBS, +1× GlutaMAX, +10 mM HEPES, +0.5% Pen/Strep. The SW620-KO cells were cultured in the following media: DMEM/F-12, +10% FBS, +1× GlutaMAX, +10 mM HEPES, +0.5% Pen/Strep.
as §1
as §2, with “health,” for “health and”, “density, etc.” for “density.”, “Accutase” for “Accutase®”
as §3, §4, §5, §6, §7
(§11) The assay plates were then incubated for 96 h at 37° C., 95% rH, and 5% CO2.
(§12) 96h after treatment 30 μl of CyQuant® reagent was added to the assay plates using a Multidrop combi in the dark. The plates were then incubated for 1 hour at 37° C., 95% rH and 5% CO2. Thereafter, the assay plates were removed from the incubator and allowed to equilibrate to RT for 30 min in the dark without lid. Finally, they were measured using an EnVision microplate reader with a FITC bottom read program.
(§13) Experimental data in the Viability assay of the compounds shown in Table 1 are shown in Table 3 below and classified in the following groups: […]

SW620 Yap KO cells = experiment: Viability assay in SW620 Yap KO (Yap independent) cells, CyQUANT; assay type: cell-based; details: Homo sapiens, SW-620, SW620 YAP/TAZ knock-out (YAP independent) cells, 96 hour incubation
Protocol: as §8, §9, §10, §1
as §2, with “health,” for “health and”, “density, etc.” for “density.”, “Accutase” for “Accutase®”
as §3, §4, §5, §6, §7, §11, §12, §13

Structure (SMILES)	IC50 (YAP-TEAD interaction)	IC50 (NCI-H226 cells)	IC50 (SW620 Yap KO cells)	melting point
O=C(O)c1ccc2c(c1)c1cc(Cc3ccccc3)ccc1n2-c1ccc(C(F)(F)F)cc1 [Compound 1, 6-benzyl-9-[4-(trifluoromethyl)phenyl]-9H-carbazole-3-carboxylic acid]	100 to 1000 nM	0.1 to 1 µM	> 10 µM	–
Cc1cccc2c1c1cc(C(=O)O)ccc1n2-c1ccc(C(F)(F)F)cc1 [Compound 6, 5-methyl-9-[4-(trifluoromethyl)phenyl]-9H-carbazole-3-carboxylic acid]	1 to 10 nM	0.001 to 0.1 µM	> 10 µM	–
O=C(O)c1ccc2c(c1)c1ccccc1n2-c1ccc(C(F)(F)F)cc1 [Compound 8, 9-[4-(trifluoromethyl)phenyl]-9H-carbazole-3-carboxylic acid]	10 to 100 nM	0.1 to 1 µM	> 10 µM	–
Cc1ccc2c(c1)c1cc(C(=O)O)ccc1n2-c1ccc(C(F)(F)F)cc1 [Compound 10, 6-methyl-9-[4-(trifluoromethyl)phenyl]-9H-carbazole-3-carboxylic acid]	1 to 10 nM	0.001 to 0.1 µM	> 10 µM	–
O=C(O)c1ccc2c(c1)c1cc(F)ccc1n2-c1ccc(C(F)(F)F)cc1 [Compound 11, 6-fluoro-9-[4-(trifluoromethyl)phenyl]-9H-carbazole-3-carboxylic acid]	10 to 100 nM	0.1 to 1 µM	–	202 to 204 °C
CC(C)c1ccc2c(c1)c1cc(C(=O)O)ccc1n2-c1ccc(C(F)(F)F)cc1 [Compound 13, 6-(propan-2-yl)-9-[4-(trifluoromethyl)phenyl]-9H-carbazole-3-carboxylic acid]	10 to 100 nM	0.1 to 1 µM	–	271 to 272 °C
O=C(O)c1ccc2c(c1)c1cc(C(F)(F)F)ccc1n2-c1ccc(C(F)(F)F)cc1 [Compound 14, 6-(trifluoromethyl)-9-[4-(trifluoromethyl)phenyl]-9H-carbazole-3-carboxylic acid]	1 to 10 nM	0.1 to 1 µM	–	292 to 294 °C
O=C(O)c1ccc2c(c1)c1nc(C(F)(F)F)ccc1n2-c1ccc(C(F)(F)F)cc1 [Compound 16, 2-(trifluoromethyl)-5-[4-(trifluoromethyl)phenyl]-5H-pyrido[3,2-b]indole-8-carboxylic acid]	10 to 100 nM	0.001 to 0.1 µM	–	160 to 162 °C
Cc1ccc2c(n1)c1cc(C(=O)O)ccc1n2-c1ccc(C(F)(F)F)cc1 [Compound 17, 2-methyl-5-[4-(trifluoromethyl)phenyl]-5H-pyrido[3,2-b]indole-8-carboxylic acid]	1 to 10 nM	0.001 to 0.1 µM	–	300 °C
O=C(O)c1ccc2c(c1)c1nc(F)ccc1n2-c1ccc(C(F)(F)F)cc1 [Compound 18, 2-fluoro-5-[4-(trifluoromethyl)phenyl]-5H-pyrido[3,2-b]indole-8-carboxylic acid]	10 to 100 nM	0.1 to 1 µM	–	300 °C
COc1ccc2c(n1)c1cc(C(=O)O)ccc1n2-c1ccc(C(F)(F)F)cc1 [Compound 19, 2-methoxy-5-[4-(trifluoromethyl)phenyl]-5H-pyrido[3,2-b]indole-8-carboxylic acid]	1 to 10 nM	0.1 to 1 µM	–	245 to 247 °C
Cc1ccc2c3cc(C(=O)O)ccc3n(-c3ccc(C(F)(F)F)cc3)c2c1 [Compound 20, 7-methyl-9-[4-(trifluoromethyl)phenyl]-9H-carbazole-3-carboxylic acid]	10 to 100 nM	1 to 10 µM	–	250 to 252 °C
CNC(=O)c1ccc2c(c1)c1cc(C)ccc1n2-c1ccc(C(F)(F)F)cc1 [Compound 21, N,6-dimethyl-9-[4-(trifluoromethyl)phenyl]-9H-carbazole-3-carboxamide]	1 to 10 nM	0.001 to 0.1 µM	1 to 10 µM	184 to 186 °C
CNC(=O)c1ccc2c(c1)c1cc(F)ccc1n2-c1ccc(C(F)(F)F)cc1 [Compound 23, 6-fluoro-N-methyl-9-[4-(trifluoromethyl)phenyl]-9H-carbazole-3-carboxamide]	10 to 100 nM	0.001 to 0.1 µM	–	270 to 272 °C
CNC(=O)c1ccc2c(c1)c1nc(F)ccc1n2-c1ccc(C(F)(F)F)cc1 [Compound 25, 2-fluoro-N-methyl-5-[4-(trifluoromethyl)phenyl]-5H-pyrido[3,2-b]indole-8-carboxamide]	100 to 1000 nM	–	–	250 to 252 °C
CNC(=O)c1ccc2c(c1)c1ccc(C)cc1n2-c1ccc(C(F)(F)F)cc1 [Compound 26, N,7-dimethyl-9-[4-(trifluoromethyl)phenyl]-9H-carbazole-3-carboxamide]	10 to 100 nM	0.1 to 1 µM	–	230 to 232 °C
CNC(=O)c1ccc2c(c1)c1nc(C(F)(F)F)ccc1n2-c1ccc(C(F)(F)F)cc1 [Compound 29, N-methyl-2-(trifluoromethyl)-5-[4-(trifluoromethyl)phenyl]-5H-pyrido[3,2-b]indole-8-carboxamide]	100 to 1000 nM	> 10 µM	–	225 to 227 °C
CNC(=O)c1ccc2c(c1)c1cc(C(F)(F)F)ccc1n2-c1ccc(C(F)(F)F)cc1 [Compound 30, N-methyl-6-(trifluoromethyl)-9-[4-(trifluoromethyl)phenyl]-9H-carbazole-3-carboxamide]	10 to 100 nM	1 to 10 µM	–	242 to 244 °C
CNC(=O)c1ccc2c(c1)c1cc(C#N)ccc1n2-c1ccc(C(F)(F)F)cc1 [Compound 33, 6-cyano-N-methyl-9-[4-(trifluoromethyl)phenyl]-9H-carbazole-3-carboxamide]	10 to 100 nM	0.001 to 0.1 µM	–	270 to 272 °C
O=C(O)c1cc2c3cccnc3n(Cc3ccc(C(F)(F)F)cc3)c2cn1 [Compound 34, 8-{[4-(trifluoromethyl)phenyl]methyl}-5,8,10-triazatricyclo[7.4.0.0^2,^7]trideca-1(9),2,4,6,10,12-hexaene-4-carboxylic acid]	100 to 1000 nM	–	–	195 to 200 °C
O=C(O)c1cc2c3cccnc3n(-c3ccc(C(F)(F)F)cc3)c2cn1 [Compound 35, 8-[4-(trifluoromethyl)phenyl]-5,8,10-triazatricyclo[7.4.0.0^2,^7]trideca-1(9),2,4,6,10,12-hexaene-4-carboxylic acid]	10 to 100 nM	0.1 to 1 µM	–	185 to 188 °C
